One data set concerns S. aureus ATCC 29213. Description: Minimum inhibitory concentration (MIC) assay, broth microdilution. Type of data set: cell-based. To be noted: Staphylococcus aureus, ATCC29213; S. aureus ATCC 29213, Mueller-Hinton II broth, 37° C., 18 to 24 hours. Here is the method:
(§1) The antimicrobial activity of the compounds of the invention may be evaluated by a number of methods, including the following visual minimum inhibitory concentration (MIC) assay. This assay determines the minimum concentration of compound required to inhibit growth of a bacterial strain. Whole-cell antibacterial activity is determined by broth microdilution using conditions recommended by the NCCLS (see National Committee for Clinical Laboratory Standards. 2001. Performance standards for antimicrobial susceptibility testing: 11th informational supplement. Vol. 21, no. 1, M100-S11. National Committee for Clinical Laboratory Standards, Wayne, Pa.). Test compounds are dissolved in DMSO and diluted 1:50 in Mueller-Hinton II broth (Becton-Dickinson) to produce a 256 μg/ml stock solution. In a 96-well microtiter plate, the compound solution is serially two-fold diluted in Mueller-Hinton II broth. After the compounds are diluted, a […] aliquot of the test organism (˜1×10^6 cfu/mL) is added to each well of the microtiter plate. The final test concentrations range from 0.125-128 μg/mL Inoculated plates are incubated in ambient air at 37° C. for 18 to 24 hours. The organisms selected for testing included laboratory strains S. aureus ATCC 29213 and E. coli ATCC 25922 (strains purchased from American Type Culture Collection, Manassas, Va.). The minimum inhibitory concentration (MIC) was determined as the lowest concentration of compound that inhibited visible growth of the test organism.

In a further data set the test system is E. coli ATCC 25922. The description is as above. The format is cell-based. To be noted: Escherichia coli, ATCC25922; E. coli ATCC 25922, Mueller-Hinton II broth, 37° C., 18 to 24 hours. As for the experimental part:
as §1

Data set [1] is described as follows: Compound cytotoxicity, cell viability staining with Alamar Blue. The format is cell-based. To be noted: Chinese hamster, CHO cells (Chinese hamster ovary), positive control. (Resazurin is reduced to fluorescent resorufin, in cell work by metabolically active cells.)
Method: (§2) Optimal cell density is first determined by plating cells in a 96-well plate standard sterile tissue culture plates in 100 μl media, 10% FBS at six cell densities from 500 cells/well to 15,000 cells/well. A cell free well containing only media is used as a control. Cells are incubated at 37° C. in a 5% CO2 incubator for 24 hours. 10% culture volume (10 ul) of Alamar Blue (Biosource, DAL1100, 100 mL) is then added. Cells are incubated at 37° C. in a 5% CO2 incubator and read in a Victor V plate reader, 544 nm excitation, 590 nm emission, at 3, 4, and 24 hours after the addition of Alamar Blue. The cell number vs. change in fluorescence is plotted to determine linearity of signal vs. cell number. The optimal density varies between 500-15,000 cells/well depending on the specific cell type. The optimal density is selected based on the highest number of cells that is still in the linear response range. Cells are plated at optimal cell density in a standard sterile tissue culture 96 well plate, and incubated at 37° C., O/N in a 5% CO2 incubator. 12 to 48 hours post-plating media is removed. […] Plates are incubated 4 hours at 37° C. in a 5% CO2 incubator and read in a Victor V plate reader, 544 nm excitation, 590 nm emission. […] The change in fluorescence vs. concentration of test compound is plotted to determine the cytotoxicity of the compound.
Assay in data set [2]: as above
Method: as §2
The format is cell-based. Conditions: human, Hep 2 cells (laryngeal carcinoma), positive control.

Each structure is given as a SMILES string. Values after ≈ are worked out from the molar mass of the structure shown.

In general, melting point refers to the temperature of the solid-liquid transition. In the case of `O=c1[nH]sc2c1c(=O)c1cc(F)c(C3=CCNCC3)cc1n2C1CC1`, the melting point was > 241 °C (dec.).
`NC1CCc2cc(-c3cc4c(cc3F)c(=O)c3c(=O)[nH]sc3n4C3CC3)ccc2C1` (racemic) [Compound 31, (Rac)-7-(6-Amino-5,6,7,8-Tetrahydronaphthalen-2-Yl)-9-Cyclopropyl-6-Fluoro-9H-Isothiazolo[5,4-B]Quinoline-3,4-Dione]: the melting point is > 257 °C (dec.).
The MIC is the lowest concentration that inhibits growth of the organism. High values mean weaker potency, low ones greater potency. As to `O=c1[nH]sc2c1c(=O)c1cc(F)c(-c3ccccc3)cc1n2C1CC1` [Compound 32, 9-Cyclopropyl-6-fluoro-7-phenyl-9H-isothiazolo[5,4-b]quinoline-3,4-dione], the MIC in the data set with S. aureus ATCC 29213 was 0.007 µg/mL (≈ 0.0199 µM); in the data set on E. coli ATCC 25922, 0.06 µg/mL (≈ 0.17 µM).
For the compound `O=c1[nH]sc2c1c(=O)c1cc(F)c(-c3cccnc3)cc1n2C1CC1` [Compound 33, 9-Cyclopropyl-6-fluoro-7-pyridin-3-yl-9H-isothiazolo [5,4-b]quinoline-3,4-dione], the MIC against S. aureus ATCC 29213 was 0.007 µg/mL (≈ 0.0198 µM); against E. coli ATCC 25922, 0.003 µg/mL (≈ 0.00849 µM).
With `O=C(O)c1cccc(-c2cc3c(cc2F)c(=O)c2c(=O)[nH]sc2n3C2CC2)c1` [Compound 34, 3-(9-Cyclopropyl-6-fluoro-3,4-dioxo-2,3,4,9-tetrahydro-isothiazolo[5,4-b]quinolin-7-yl)-benzoic acid], the MIC in the data set on S. aureus ATCC 29213 stood at 0.125 µg/mL (≈ 0.315 µM); in the data set with E. coli ATCC 25922 it was 1 µg/mL (≈ 2.52 µM).
As for `CCOc1cccc(-c2cc3c(cc2F)c(=O)c2c(=O)[nH]sc2n3C2CC2)c1` [Compound 35, 9-Cyclopropyl-7-(3-ethoxy-phenyl)-6-fluoro-9H-isothiazolo[5,4-b]quinoline-3,4-dione], the figures for the MIC in the data set on S. aureus ATCC 29213 and with E. coli ATCC 25922 were 0.03 µg/mL (≈ 0.0757 µM) and 1 µg/mL (≈ 2.52 µM), respectively.
In general, CC50 refers to the concentration that lowers cell viability or growth by half. Read a low CC50 as harm at low concentration. Take `CC(C)(C)c1ccc(C(O)CCCN2CCC(C(O)(c3ccccc3)c3ccccc3)CC2)cc1` (stereo not drawn) [Terfenadine]: the figures for the CC50 in data set [1] and in data set [2] were 4.3 to 6.5 µM and 3 to 5 µM, respectively.

These data come from patent US20110223132A1, “ISOTHIAZOLOQUINOLONES AND RELATED COMPOUNDS AS ANTI-INFECTIVE AGENTS” (priority 2003, published 2011).
